In ChEMBL document CHEMBL1133422, “The S-alkyl chain length as a determinant of the anti-leukemic activity of cysteine chloromethyl ketone compounds” (Bioorg Med Chem Lett, 2000):

Tests used:
MOLT-3 = assay: Anti-leukemic activity against Molt-3 (T-lineage ALL, human acute lymphoblastic leukemia) cell line.; type: functional, cell-based
NALM-6 = assay: Anti-leukemic activity against Nalm-6 (B-lineage ALL, human acute lymphoblastic leukemia) cell line.; type: functional, cell-based

Row | SMILES | IC50 (MOLT-3) [µM] | IC50 (NALM-6) [µM]
1 | CCCCCCCSC[C@H](NC(C)=O)C(=O)CCl | 2.5 | 4.8
2 | CCCCCCCCCCCCCCCCCCCCCCSC[C@H](NC(C)=O)C(=O)CCl | > 100 | > 100
3 | CCCCCSC[C@H](NC(C)=O)C(=O)CCl | 5.4 | 5.8
4 | CCCCSC[C@H](NC(C)=O)C(=O)CCl | 5.6 | 41.4
5 | CCCSC[C@H](NC(C)=O)C(=O)CCl | 8 | 6.9
6 | CCCCCCSC[C@H](NC(C)=O)C(=O)CCl | 0.7 | 3.3
7 | CCCCCCCCCCCCCCSC[C@H](NC(C)=O)C(=O)CCl | 8.8 | 8.7
8 | CCCCCCCCCCCCCCCSC[C@H](NC(C)=O)C(=O)CCl | 8.6 | 8.9
9 | CCCCCCCCCCCCCCCCCCCCSC[C@H](NC(C)=O)C(=O)CCl | > 100 | > 100
10 | CCCCCCCCCCSC[C@H](NC(C)=O)C(=O)CCl | 3.4 | 4.7
11 | CCCCCCCCCCCCCSC[C@H](NC(C)=O)C(=O)CCl | > 100 | > 100
12 | CCCCCCCCCCCSC[C@H](NC(C)=O)C(=O)CCl | 3 | 1.7
13 | CCCCCCCCCCCCCCCCCCSC[C@H](NC(C)=O)C(=O)CCl | > 100 | > 100
14 | CCCCCCCCSC[C@H](NC(C)=O)C(=O)CCl | 4.1 | 5.6
15 | CCCCCCCCCSC[C@H](NC(C)=O)C(=O)CCl | 6.7 | 7.3
16 | CCCCCCCCCCCCCCCCSC[C@H](NC(C)=O)C(=O)CCl | 17.3 | 16
17 | CSC[C@H](NC(C)=O)C(=O)CCl | 80.8 | 30.3
18 | CCSC[C@H](NC(C)=O)C(=O)CCl | 99.9 | 52.8
